In general, IC50 refers to the concentration that inhibits the measured activity by half.

Bounds are passed on as bounds.

The target of one test is TRKB-wt (Homo sapiens (Human), UniProt Q16620). Kind of test: Biochemical kinase assay, TRKB-wt. As to conditions: apparent inhibitory constant, kinase domain, Morrison equation; read-out: TRKB-wt Ki^app. As to the method:
(§1) First, 250 nL of compound dissolved in DMSO (100-fold of the desired concentration) was dispensed into a 384-well plate. A 12.5 μL substrate solution containing ATP (2 mM) and fluorogenic phosphorylation substrate AQT0101 ([…] for ALK and ROS, AssayQuant) or AQT0104 (26 μM for TRKB, AssayQuant) in buffer (50 mM HEPES pH 7.5, […], 0.5 mM EGTA, 10 mM MgCl2) was added and mixed thoroughly. Then, a 12.5 μL kinase solution containing ALK (1.5 nM, Carna, 08-518), ALK I1171N/D1203N (4 nM, SignalChem, custom-made), ROS1 (0.6 nM, Carma, 08-163), ROS1-G2032R (0.5 nM, SignalChem, R14-121BG), or TRKB-wt (1.5 nM, SignalChem, N17-11G) kinase domains in buffer ([…] pH 7.5, 0.01% Brij-[…], 0.4 mg/mL BSA, 0.5 mM EGTA, and 10 mM MgCl2) was added and mixed thoroughly. The plate was sealed and read by SpectraMax Paradigm at λ=485 nm every 2 minutes for 120 minutes at 30° C. Initial rates of reaction (v) were calculated from the change in fluorescence intensity over time during the initial, linear portion of the reaction. Finally, apparent inhibitory constants (Ki^app) were determined from regression of v and I (inhibitor concentration) to Morrison Equation (E=enzyme concentration): […]
(§2) Compound potency can be interpreted by binning Ki^app values against the targets: bin A for high potency, Ki^app<50 nM; bin B for medium potency, 50 nM≤Ki^app<500 nM; and bin C for low potency, Ki^app≥500 nM. […] “nd” means not determined.

In test [1] the target is Ba/F3 EML4-ALK v1 I1171N/D1203N (Homo sapiens (Human), UniProt Q9HC35+Q9UM73, D1203N/I1171N). Kind of test: Ba/F3 cell proliferation assay, EML4-ALK v1 I1171N/D1203N. Type of test: cell-based. As to conditions: for IC50: Ba/F3 stable cells, 72 hours, CellTiter-Glo. The method, boiled down: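 Ba/F3 cells made IL-3-independent by retroviral EML4-ALK v1 I1171N/D1203N and selected with puromycin, then treated with 3-fold compound dilutions for 72 h. Viability by CellTiter-Glo luminescence; IC50 from four-parameter logistic fit.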
Ba/F3 EML4-ALK v1 I1171N/D1203N, sequence (Q9UM73 other isoform, or with tags, fused parts or gaps I1171N/D1203N): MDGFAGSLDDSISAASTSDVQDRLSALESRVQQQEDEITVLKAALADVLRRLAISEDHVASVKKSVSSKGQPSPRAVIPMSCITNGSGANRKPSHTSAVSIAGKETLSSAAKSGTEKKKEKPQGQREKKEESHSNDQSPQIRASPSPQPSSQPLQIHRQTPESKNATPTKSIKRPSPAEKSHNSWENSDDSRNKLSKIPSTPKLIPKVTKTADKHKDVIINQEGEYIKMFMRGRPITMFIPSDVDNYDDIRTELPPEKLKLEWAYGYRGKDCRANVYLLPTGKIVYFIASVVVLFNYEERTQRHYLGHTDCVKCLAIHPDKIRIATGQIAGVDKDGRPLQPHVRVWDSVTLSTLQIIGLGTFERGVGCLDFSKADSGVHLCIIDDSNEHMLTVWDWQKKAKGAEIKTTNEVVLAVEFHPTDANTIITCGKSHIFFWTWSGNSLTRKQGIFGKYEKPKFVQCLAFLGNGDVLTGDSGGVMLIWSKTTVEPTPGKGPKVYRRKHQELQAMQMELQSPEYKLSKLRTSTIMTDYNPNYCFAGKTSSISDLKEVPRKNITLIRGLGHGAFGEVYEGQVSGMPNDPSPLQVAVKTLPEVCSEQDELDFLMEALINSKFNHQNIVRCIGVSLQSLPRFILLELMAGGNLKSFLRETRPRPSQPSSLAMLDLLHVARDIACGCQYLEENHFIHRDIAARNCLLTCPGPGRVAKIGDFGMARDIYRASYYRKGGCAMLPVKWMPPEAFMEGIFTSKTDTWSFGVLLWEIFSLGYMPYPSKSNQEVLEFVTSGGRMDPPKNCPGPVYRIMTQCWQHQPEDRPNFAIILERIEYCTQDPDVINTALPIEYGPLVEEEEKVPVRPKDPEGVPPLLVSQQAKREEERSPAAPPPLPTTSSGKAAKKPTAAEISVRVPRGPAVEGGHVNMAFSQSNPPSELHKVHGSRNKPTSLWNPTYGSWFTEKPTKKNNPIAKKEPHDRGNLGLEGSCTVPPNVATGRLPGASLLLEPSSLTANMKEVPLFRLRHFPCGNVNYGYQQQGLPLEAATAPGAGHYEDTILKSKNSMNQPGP
(In general: ATP-based viability assays read luminescence as a measure of living cells.)

The target of a further test is Ba/F3 ETV6-TRKB (Homo sapiens, UniProt Q16620). The experiment in a line: Ba/F3 cell proliferation assay, ETV6-TRKB. Type of test: cell-based. As to conditions: Ba/F3 stable cells, 72 hours, CellTiter-Glo; read-out: ETV6-TRKB IC50. A digest of the protocol:
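Ba/F3 cells retrovirally transduced with ETV6-TRKB and selected for IL-3-independent growth with puromycin were treated with 3-fold compound dilutions for 72 h. Viability read by CellTiter-Glo luminescence; IC50 from percent inhibition by four-parameter logistic fit.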

The next test has as its target Ba/F3 EML4-ALK v1 I1171N (Homo sapiens (Human), UniProt Q9HC35+Q9UM73, I1171N). Kind of test: Ba/F3 cell proliferation assay, EML4-ALK v1 I1171N. As to conditions: for IC50: Ba/F3 stable cells, 72 hours, CellTiter-Glo; for ETV6-TRKB / EML4-ALK v1 I1171N: TRKB selectivity, ratio of Ba/F3 IC50 values. The class given is cell-based. A digest of the protocol:
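Ba/F3 cells stably transformed with retroviral EML4-ALK v1 I1171N, selected by IL-3 withdrawal and puromycin, grown IL-3-free. Compounds added as 3-fold dilution series, 72 h incubation; viability by CellTiter-Glo luminescence. IC50 from percent inhibition by four-parameter logistic fit, binned A/B/C.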

The next test has as its target ALK I1171N/D1203N (Homo sapiens (Human), UniProt Q9UM73, D1203N/I1171N). Kind of test: Biochemical kinase assay, ALK I1171N/D1203N. As to conditions: apparent inhibitory constant, kinase domain, Morrison equation; read-out: ALK-I1171N-D1203N Ki^app. The method, then: as §1, §2
The mark [2] stands for this setting: TRKB selectivity, ratio of Ba/F3 IC50 values.

Ba/F3 ETV6-TRKB, sequence (Q16620 32-822 limits assumed, change not shown): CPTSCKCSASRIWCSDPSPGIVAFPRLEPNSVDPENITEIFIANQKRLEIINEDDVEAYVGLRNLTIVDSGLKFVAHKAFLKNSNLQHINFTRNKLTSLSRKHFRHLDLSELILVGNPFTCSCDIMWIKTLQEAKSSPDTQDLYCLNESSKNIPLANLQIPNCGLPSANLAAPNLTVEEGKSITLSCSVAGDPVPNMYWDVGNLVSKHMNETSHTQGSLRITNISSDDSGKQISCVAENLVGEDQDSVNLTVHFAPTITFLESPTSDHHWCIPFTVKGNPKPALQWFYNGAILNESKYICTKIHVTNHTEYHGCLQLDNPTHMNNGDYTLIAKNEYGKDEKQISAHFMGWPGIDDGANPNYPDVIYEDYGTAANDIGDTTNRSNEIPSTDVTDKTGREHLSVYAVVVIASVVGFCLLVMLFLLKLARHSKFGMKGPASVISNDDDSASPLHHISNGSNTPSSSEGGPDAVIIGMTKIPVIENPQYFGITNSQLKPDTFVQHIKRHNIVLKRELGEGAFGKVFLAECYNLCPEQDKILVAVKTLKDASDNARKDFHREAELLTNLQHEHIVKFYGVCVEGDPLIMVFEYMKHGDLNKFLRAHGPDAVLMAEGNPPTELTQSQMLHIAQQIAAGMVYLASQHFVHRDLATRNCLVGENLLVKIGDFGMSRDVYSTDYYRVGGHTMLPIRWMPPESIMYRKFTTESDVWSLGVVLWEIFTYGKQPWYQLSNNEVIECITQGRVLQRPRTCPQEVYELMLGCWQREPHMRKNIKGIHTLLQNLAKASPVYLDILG
Ba/F3 EML4-ALK v1 I1171N, sequence (Q9UM73 other isoform, or with tags, fused parts or gaps I1171N): as the sequence (Q9UM73 other isoform, or with tags, fused parts or gaps I1171N/D1203N) above, with N642D counted along it
TRKB-wt, sequence (Q16620 538-807): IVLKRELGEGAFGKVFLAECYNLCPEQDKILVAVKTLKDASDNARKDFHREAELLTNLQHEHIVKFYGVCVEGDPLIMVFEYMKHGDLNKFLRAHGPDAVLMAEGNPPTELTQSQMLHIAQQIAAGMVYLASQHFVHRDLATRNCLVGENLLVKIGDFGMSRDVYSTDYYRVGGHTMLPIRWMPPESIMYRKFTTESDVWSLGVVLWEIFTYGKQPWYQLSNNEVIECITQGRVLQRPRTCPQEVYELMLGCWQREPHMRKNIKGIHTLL
ALK I1171N/D1203N, sequence (Q9UM73 1116-1392 I1171N/D1203N): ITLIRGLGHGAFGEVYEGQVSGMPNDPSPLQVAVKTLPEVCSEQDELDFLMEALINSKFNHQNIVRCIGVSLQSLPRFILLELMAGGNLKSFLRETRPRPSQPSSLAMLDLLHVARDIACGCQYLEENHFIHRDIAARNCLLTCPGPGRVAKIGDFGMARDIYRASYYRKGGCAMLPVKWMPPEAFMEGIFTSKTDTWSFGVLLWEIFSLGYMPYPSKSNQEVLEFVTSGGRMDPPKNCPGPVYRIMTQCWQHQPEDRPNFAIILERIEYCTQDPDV

With `C[C@H]1Oc2cc(cnc2N)-c2c(c(C(N)=O)nn2CC2CC2)Cc2cccnc2-c2ccc(F)cc21` [Example 6, (R)-23-amino-3-(cyclopropylmethyl)-17-fluoro-20-methyl-21-oxa-3,4,12,24-tetraazapentacyclo[20.3.1.0^2,^6.0^8,^13.0^14,^19]hexacosa-1(25),2(6),4,8(13),9,11,14,16, 18,22(26),23-undecaene-5-carboxamide], at TRKB-wt, the Ki fell in the range of 50 to 500 nM. Moreover, the IC50 in test [1] was 0.1 to 50 nM; at Ba/F3 ETV6-TRKB it was greater than 500 nM.

`CCN(C)C(=O)c1nn(CC2CC2)c2c1Cc1cn(C)nc1-c1ccc(F)cc1[C@@H](C)Oc1cc-2cnc1N` [Example 38, N-ethyl-N-methyl-(R)-22-amino-3-(cyclopropylmethyl)-16-fluoro-10-methyl-19-methyl-20-oxa-3,4,10,11,23-pentaazapentacyclo[19.3.1.0^2,^6.0^8,^12.0^13,^18]pentacosa-1(24),2(6),4,8,11,13,15,17,21(25),22-decaene-5-carboxamide]: at TRKB-wt, the Ki lay in the range of 50 to 500 nM. Besides, the results for the IC50 (at Ba/F3 EML4-ALK v1 I1171N; in test [1]; on Ba/F3 ETV6-TRKB) were 0.1 to 50 nM, 0.1 to 50 nM and greater than 500 nM, respectively.

Consider `Cc1cc2n(n1)-c1c(F)cc(F)cc1[C@@H](C)Oc1cc(cnc1N)-c1c(c(C(=O)N(C)C)nn1CC1CC1)C2` [Example 44, N,N-dimethyl-(R)-22-amino-3-(cyclopropylmethyl)-14,16-difluoro-10,19-dimethyl-20-oxa-3,4,11,12,23-pentaazapentacyclo[19.3.1.0^2,^6.0^8,^12.0^13,^18]pentacosa-1(24),2(6),4,8, 10,13,15,17,21(25),22-decaene-5-carboxamide], for which the Ki at TRKB-wt is 50 to 500 nM. The values for the IC50 (in test [1]; at Ba/F3 ETV6-TRKB) were 0.1 to 50 nM and greater than 500 nM, respectively.

Consider `CCn1nc(C(=O)N(C)C)c2c1-c1cnc(N)c(c1)O[C@H](C)c1cc(F)ccc1-c1ncccc1C2=O` [Example 47, N,N-dimethyl-(R)-23-amino-3-ethyl-17-fluoro-20-methyl-7-oxo-21-oxa-3,4,12,24-tetraazapentacyclo[20.3.1.0^2,^6.0^8,^13.0^14,^19]hexacosa-1(25),2(6),4,8(13),9,11,14,16,18,22(26),23-undecaene-5-carboxamide], for which the Ki at ALK I1171N/D1203N was 50 to 500 nM. Moreover, the half-inhibitory concentration (IC50) in test [1] was 50 to 500 nM; at Ba/F3 ETV6-TRKB it was greater than 500 nM. For the same compound, in test [1] (TRKB selectivity, ratio of Ba/F3 IC50 values, Table 6 bins), the “Selectivity for Ba/F3 EML4-ALK v1 I1171N-D1203N IC50 over Ba/F3 ETV6-TRKB IC50” value is recorded as “BB (bin BB for the selectivity with the ratio≥10-fold but<30)”.

Regarding `C[C@H]1Oc2cc(cnc2N)-c2c(nn(C)c2C#N)C(=O)c2scnc2-c2c(F)cc(F)cc21` [Example 81, (R)-22-amino-14,16-difluoro-4-methyl-19-methyl-7-oxo-20-oxa-9-thia-4,5,11,23-tetraazapentacyclo[19.3.1.0^2,^6.0^8,^12.0^13,^18]pentacosa-1(24),2,5,8(12),10,13,15,17,21(25),22-decaene-3-carbonitrile], the IC50 at Ba/F3 EML4-ALK v1 I1171N is 0.1 to 50 nM; in test [1], 0.1 to 50 nM; on Ba/F3 ETV6-TRKB it was greater than 500 nM. Moreover, the “ETV6-TRKB / EML4-ALK v1 I1171N” value on Ba/F3 EML4-ALK v1 I1171N is recorded as “A (bin A for very high selectivity, ratio≥30-fold)”. In addition, in test [1] (setting [2]), the “ETV6-TRKB / EML4-ALK v1 I1171N/D1203N” value is given as “A (bin A for very high selectivity, ratio≥30-fold)”.

As for `C[C@H]1Oc2nc(cnc2N)-c2c(nn(C)c2C#N)C(=O)c2cccnc2-c2c(F)cc(F)cc21` [Example 82, (R)-23-amino-15,17-difluoro-4-methyl-20-methyl-7-oxo-21-oxa-4,5,12,24,26-pentaazapentacyclo[20.3.1.0^2,6.0^8,13.0^14,19]hexacosa-1(25),2,5,8(13),9,11,14,16,18,22(26),23-undecaene-3-carbonitrile], the IC50 was 0.1 to 50 nM on Ba/F3 EML4-ALK v1 I1171N, 0.1 to 50 nM in test [1] and 50 to 500 nM at Ba/F3 ETV6-TRKB. Besides, on Ba/F3 EML4-ALK v1 I1171N, the “ETV6-TRKB / EML4-ALK v1 I1171N” value is recorded as “C (bin C for moderate selectivity, ratio≥1 but<10)”. In test [1] (setting [2]), the “ETV6-TRKB / EML4-ALK v1 I1171N/D1203N” value is recorded as “A (bin A for very high selectivity, ratio≥30-fold)”.
